Measurements reported in paper PMC7181660, “A novel specific PERK activator reduces toxicity and extends survival in Huntington's disease models” (Scientific Reports, 2020).

Assays:
[1] = tested on: STHdh^Q111/111 cells; assay: Toxicity assay: rescue from tunicamycin (ER stress)-induced apoptosis, FACS with propidium iodide (sub-G0/G1); type: cell-based, murine; settings: for rescue from ER stress-induced apoptosis: 0–100 μM, 48 h Tun exposure (Fig. 1C)
Experimental: (§1) STHdh^Q111/111 cells (used before[13]) or PERK+/+ or PERK−/− MEFs (kindly provided by David Ron, Univ. Cambridge) were incubated with Tun (10 μg/ml) for 48 h, which results in ER stress-induced cell death. Cells under the same conditions were incubated for the same times, together with Tun, with increasing concentrations of the different PERK modulators (0–120 μM) and the percent of apoptotic cells was measured by FACS cell cycle progression using propidium iodide (PI), considering the fraction beneath G0/G1. The relative apoptosis rate was calculated to be able to compare between compounds and experiments, where for each concentration curve the percent of apoptotic cells was considered 100 at concentration 0 of the PERK modulator, with only Tun. The graphs show the average relative apoptosis rate of at least 3 independent experiments for each compound.
(§2) Cells were washed with PBS and fixed with cold methanol. Before FACS analysis cells were washed with PBS, followed by addition of propidium iodide (PI) solution (10 μg/ml) and analysis by flow cytometry. Cells in sub-G0/G1 were counted as apoptotic/ dead.

[2] = biological target: panel of 391 kinases (Homo sapiens, UniProt P37173); assay: biochemical; type: biochemical; settings: TGFBR2; ATP 1 µM; read-out: Control Compound IC50
[3] = biological target: T1, PERK (EIF2AK3) (Homo sapiens, UniProt Q9NZJ5); assay: In vitro HotSpot kinase assay on isolated PERK; type: biochemical; settings: HotSpot Kinase Assay
T1 construct: GST; purchased Life technologies, Carlsbad, CA; host or cells: insect cells
T1 sequence (Q9NZJ5 536-1116): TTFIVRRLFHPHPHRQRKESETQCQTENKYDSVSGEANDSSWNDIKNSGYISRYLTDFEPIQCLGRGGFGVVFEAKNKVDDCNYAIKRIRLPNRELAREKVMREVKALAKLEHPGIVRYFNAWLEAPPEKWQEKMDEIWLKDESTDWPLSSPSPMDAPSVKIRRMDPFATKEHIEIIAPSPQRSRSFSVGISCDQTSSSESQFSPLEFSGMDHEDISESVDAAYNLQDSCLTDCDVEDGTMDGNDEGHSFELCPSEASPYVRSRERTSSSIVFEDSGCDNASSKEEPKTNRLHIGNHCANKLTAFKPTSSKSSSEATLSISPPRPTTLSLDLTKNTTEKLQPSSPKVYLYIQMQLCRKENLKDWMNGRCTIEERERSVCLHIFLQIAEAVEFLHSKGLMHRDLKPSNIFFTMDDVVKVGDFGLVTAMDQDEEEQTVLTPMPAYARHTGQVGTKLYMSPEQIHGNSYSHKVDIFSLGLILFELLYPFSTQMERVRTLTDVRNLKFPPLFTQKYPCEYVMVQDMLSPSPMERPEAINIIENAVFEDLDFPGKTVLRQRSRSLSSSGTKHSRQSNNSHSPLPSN
Experimental: In vitro kinase assays with purified components and full kinase panel analysis was done at Reaction Biology Corp. (Malvern, PA, USA) using the HotSpot Kinase Assay. Reactions were performed for 20 min at room temp. using ^33P-ATP (Specific activity 10 μCi/μl) with 1 μM total ATP, 20 μM substrate and kinases in the nanomolar range in 20 mM Hepes (pH 7.5), 10 mM MgCl2, 1 mM EGTA, 0.02% Brij35, 0.02 mg/ml BSA, 0.1 mM Na3VO4, 2 mM DTT, 1% DMSO and other required factors depending on the assayed kinase.

[4] = biological target: panel of 391 kinases (Homo sapiens, UniProt Q9BQI3); assay: biochemical; type: biochemical; settings: kinase EIF2AK1; 10-dose IC50 mode; 1 µM ATP; read-out: Control Compound IC50
[5] = biological target: panel of 391 kinases (Homo sapiens, UniProt Q96QT4); assay: biochemical; type: biochemical; settings: kinase TRPM7/CHAK1; 10-dose IC50 mode; 1 µM ATP; read-out: Control Compound IC50
[6] = biological target: panel of 391 kinases (Homo sapiens, UniProt P68400); assay: biochemical; type: biochemical; settings: CK2a; ATP 1 µM; read-out: Control Compound IC50
[7] = biological target: panel of 391 kinases (Homo sapiens, UniProt Q16654); assay: biochemical; type: biochemical; settings: kinase PDK4/PDKH4; 10-dose IC50 mode; 1 µM ATP; read-out: Control Compound IC50
[8] = biological target: panel of 391 kinases (Homo sapiens, UniProt Q9Y572); assay: biochemical; type: biochemical; settings: RIPK3; ATP 1 µM; read-out: Control Compound IC50
[9] = biological target: panel of 391 kinases (Homo sapiens, UniProt Q9NYL2); assay: biochemical; type: biochemical; settings: ZAK/MLTK; ATP 1 µM; read-out: Control Compound IC50
[10] = biological target: panel of 391 kinases (Homo sapiens, UniProt Q15119); assay: biochemical; type: biochemical; settings: kinase PDK2/PDHK2; 10-dose IC50 mode; 1 µM ATP; read-out: Control Compound IC50
[11] = biological target: panel of 391 kinases (Homo sapiens, UniProt Q15120); assay: biochemical; type: biochemical; settings: kinase PDK3/PDHK3; 10-dose IC50 mode; 1 µM ATP; read-out: Control Compound IC50
[12] = biological target: T2, panel of 391 kinases (Homo sapiens, UniProt Q9NR20); assay: biochemical; type: biochemical; settings: DYRK4; ATP 1 µM; read-out: Control Compound IC50
T2 sequence (Q9NR20 1-520): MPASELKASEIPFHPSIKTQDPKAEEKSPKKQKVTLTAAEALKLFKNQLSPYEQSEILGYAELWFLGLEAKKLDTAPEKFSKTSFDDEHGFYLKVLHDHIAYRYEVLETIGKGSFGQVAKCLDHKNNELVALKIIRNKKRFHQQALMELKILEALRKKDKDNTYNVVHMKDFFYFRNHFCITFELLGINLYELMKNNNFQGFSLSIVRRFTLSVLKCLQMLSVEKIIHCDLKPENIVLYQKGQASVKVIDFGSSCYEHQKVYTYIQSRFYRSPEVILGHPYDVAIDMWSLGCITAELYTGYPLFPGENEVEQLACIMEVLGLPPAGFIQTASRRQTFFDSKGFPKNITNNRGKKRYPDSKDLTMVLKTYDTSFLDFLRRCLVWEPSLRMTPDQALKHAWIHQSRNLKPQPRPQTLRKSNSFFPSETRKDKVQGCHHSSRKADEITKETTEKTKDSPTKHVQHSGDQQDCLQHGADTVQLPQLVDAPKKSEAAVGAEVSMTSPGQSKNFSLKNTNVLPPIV

[13] = biological target: T3, panel of 391 kinases (Homo sapiens, UniProt P10398); assay: biochemical; type: biochemical; settings: ARAF; ATP 1 µM; read-out: Control Compound IC50
T3 sequence (P10398 1-606): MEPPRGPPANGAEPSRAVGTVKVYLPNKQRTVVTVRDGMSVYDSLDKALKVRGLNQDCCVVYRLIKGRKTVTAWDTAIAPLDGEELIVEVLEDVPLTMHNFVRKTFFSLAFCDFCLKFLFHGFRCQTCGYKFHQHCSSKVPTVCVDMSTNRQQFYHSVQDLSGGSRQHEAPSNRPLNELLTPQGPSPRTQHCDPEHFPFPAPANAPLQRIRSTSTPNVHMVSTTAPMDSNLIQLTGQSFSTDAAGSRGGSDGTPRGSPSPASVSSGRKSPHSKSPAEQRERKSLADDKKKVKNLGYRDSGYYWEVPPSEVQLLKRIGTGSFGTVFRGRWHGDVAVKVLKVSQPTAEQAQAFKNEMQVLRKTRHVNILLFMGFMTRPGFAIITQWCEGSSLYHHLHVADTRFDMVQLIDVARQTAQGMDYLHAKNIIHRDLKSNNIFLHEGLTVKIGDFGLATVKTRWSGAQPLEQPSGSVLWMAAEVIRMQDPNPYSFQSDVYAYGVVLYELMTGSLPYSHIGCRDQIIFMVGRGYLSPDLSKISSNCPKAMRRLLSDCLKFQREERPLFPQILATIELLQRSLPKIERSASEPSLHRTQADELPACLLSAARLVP

[14] = biological target: panel of 391 kinases (Homo sapiens, UniProt Q15118); assay: biochemical; type: biochemical; settings: kinase PDK1/PDHK1; 10-dose IC50 mode; 1 µM ATP; read-out: Control Compound IC50
[15] = tested on: STHdh^Q111/111 cells; assay: Apoptosis of STHdh^Q111/111 cells with the NRF2 inhibitor ML385; type: cell-based, murine
Experimental: as §1
Suppl. Fig. S5. NRF2 activation but not involvement in cell protection by MK-28. A)
Scheme of NRF2 activation by PERK. B) qPCR of HMOX1, a downstream target of NR F2.
Medians +- interquartile range of 3 independent experiments . P values of STHdhQ7/7 MK 5µM […]
presence of Tun and the indicated concentrations of MK-28, plus increasing concentrations of the NRF2 inhibitor ML385. Average of 3 independent experiments +-SD. D) Apoptosis of STHdhQ111/111 cells treated only with increasing concentrations of ML385. […]

[16] = biological target: panel of 391 kinases (Homo sapiens, UniProt Q8TDX7); assay: biochemical; type: biochemical; settings: NEK7; ATP 1 µM; read-out: Control Compound IC50
[17] = biological target: panel of 391 kinases (Homo sapiens, UniProt Q9HC98); assay: biochemical; type: biochemical; settings: NEK6; ATP 1 µM; read-out: Control Compound IC50
[18] = tested on: WT MEF cells; assay: Rescue from tunicamycin-induced apoptosis in WT MEFs; type: cell-based; settings: WT MEFs treated with Tun; read-out: IC50 for inhibition of apoptosis
Experimental: as §1, §2

[19] = tested on: PERK−/− MEF cells; assay: Rescue from tunicamycin-induced apoptosis in PERK−/− MEFs; type: cell-based; settings: Tun
Experimental: as §1, §2

[20] = biological target: panel of 391 kinases (Homo sapiens, UniProt Q9BYP7); assay: biochemical; type: biochemical; settings: WNK3; ATP 1 µM; read-out: Control Compound IC50
[21] = biological target: panel of 391 kinases (Homo sapiens, UniProt P27361); assay: biochemical; type: biochemical; settings: ERK1; ATP 1 µM; read-out: Control Compound IC50
[22] = tested on: PERK-P; assay: PERK phosphorylation shift by immunoblot in MEF cells; type: cell-based; settings: 3 hours, Thap 2 μg/ml

With `COc1ccc(/C=N\N(C)c2nc(-c3ccccc3)cc(-c3ccccc3)n2)cc1O` [MK-29] the “rescue from ER stress-induced apoptosis” value [1] was “inactive”.

With `c1ccc2c(-c3cnn4cc(-c5ccc(N6CCNCC6)cc5)cnc34)ccnc2c1` [LDN193189] the IC50 [2] was 0.0896 µM.

With `COc1cc(/C=N\N(C)c2nc(-c3ccccc3)cc(-c3ccc(Br)cc3)n2)ccc1O` [A4, reference compound] the reduction of apoptosis ([1]; 5 μM, 48 h Tun exposure) was “no significant effect” and the “effect on activity of isolated PERK” value [3] was “activated PERK (EIF2AK3) in the nanomolar range, although to a small extent”.

`Cn1cc(-c2ccc3c(c2)CCN3C(=O)Cc2cccc(C(F)(F)F)c2)c2c(N)ncnc21` [GSK-2606414] gave an IC50 [4] of 0.166 µM.

With `CCCCCCCCCCCCCCCCn1cc[n+](Cc2ccccc2)c1C` [NH125] the IC50 [5] was 11 µM.

For `COc1cc(/C=N\N(C)c2nc(-c3ccccc3)cc(-c3ccccc3)n2)cc(OC)c1` [MK26], the “rescue from ER stress-induced apoptosis” value [1] was “inactive”.

With `Cn1cc(-c2ccc3c(c2)CCN3C(=O)Cc2cccc(C(F)(F)F)c2)c2c(N)ncnc21` [GSK606414, 7-methyl-5-(1-{[3-(trifluoromethyl)phenyl]acetyl}-2,3-dihydro-1H-indol-5-yl)-7H-p yrrolo[2,3-d]pyrimidin-4-amine] the “effect on activity of isolated PERK” value [3] was “clear inhibitory effect”.

With `COc1cc(/C=N\N(C)c2nc(-c3ccccc3)cc(-c3ccccc3)n2)cc(OC)c1O` [MK-30] the “rescue from ER stress-induced apoptosis” value [1] was “inactive”.

Compound `O=C1Nc2ccc(I)cc2/C1=C/c1cc(Br)c(O)c(Br)c1` [GW5074] has an IC50 [6] of 0.035 µM, an IC50 [7] of 1.68 µM and an IC50 [8] of 1.14 µM. For the same compound, the IC50 [9] was 1.34 µM, the IC50 [10] was 5.52 µM and the IC50 [11] was 1.89 µM. For the same compound, the IC50 [12] was 1.14 µM, the IC50 [13] was 0.0293 µM and the IC50 [14] was 10.3 µM.

With `Cc1ccccc1C(=O)N1CCc2cc(-c3nc(NC(=O)Cc4ccc5c(c4)OCO5)sc3C)ccc21` [ML385] the “reversal of the cytoprotective effect of MK-28” value ([15]; Tun + MK-28 + increasing ML385) was “did not reverse to any significant extent” and the “toxicity (apoptosis) of ML385” value ([15]; increasing concentrations) was “caused some toxicity”.

For `O=C1Nc2ccc3ncsc3c2/C1=C/c1cnc[nH]1` [PKR Inhibitor], the IC50 [16] was 14.8 µM and the IC50 [17] was 5.69 µM.

In the case of `CCN(CC)CCC(=O)N1N=C(c2c(-c3ccccc3)c3cc(Br)ccc3[nH]c2=O)CC1c1ccc(Br)cc1` (centres unmarked) [CCT020312, reference compound], the IC50 [18] is reported as 11.1 µM, the IC50 ([1]; STHdh^Q111/111 cells treated with Tun, read-out: IC50 for inhibition of apoptosis) is reported as 32.4 µM and the “protection from apoptosis at lower concentrations” value ([1]; below 10 μM, Tun) is reported as “failed to be protective”. For the same compound, the “protection from ER stress-induced cell death” value [19] was “failed to protect”.

For `O=C1NC(=O)c2c1c(-c1ccccc1Cl)cc1[nH]c3ccc(O)cc3c21` [Wee-1 Inhibitor], the IC50 [20] was 1.91 µM.

In the case of `O=C(Nc1ccc2[nH]nc(-c3ccncc3)c2c1)[C@@H]1CCN(CC(=O)N2CCN(c3ccc(-c4ncccn4)cc3)CC2)C1` [SCH772984], the IC50 [21] is reported as 0.0126 µM.

`C/C=C(/C)C(=O)O[C@H]1C(C)=C2[C@H]([C@@H]1OC(=O)CCCCCCC)[C@@](C)(OC(C)=O)C[C@H](OC(=O)CCC)[C@@]1(O)[C@H]2OC(=O)[C@@]1(C)O` [Thap, thapsigargin, reference compound] was tested, and the “PERK migration shift (PERK-P)” value [22] was “shift of PERK consistent with its phosphorylation”.
